Values of other authors, collected in US20250090617A1, “FORMULATIONS FOR TREATING OBESITY AND DIABETES AND FOR PROVIDING OTHER HEALTH RELATED BENEFITS” (Healthrite Partners, LLC, priority 2019, published 2025).

System: cellular ATP
Settings: several studies, including clinical studies in humans

OC[C@H]1O[C@@H](n2cnc3c(O)ncnc32)[C@H](O)[C@@H]1O [Inosine]
effect on cellular ATP: did not affect ATP levels

Oc1ncnc2[nH]ncc12 [Allopurinol]
effect on cellular ATP: increase in cellular ATP

Cc1nc(-c2ccc(OCC(C)C)c(C#N)c2)sc1C(=O)O [Febuxostat]
effect on cellular ATP: increase in cellular ATP
